In US11826402B2, “Combination therapy involving antibodies against claudin 18.2 for treatment of metastatic pancreatic adenocarcinoma” (Astellas Pharma Inc., priority 2013, dated 2023):

Experiments:
[1] = system: established MiaPaCa-2-LVT xenograft tumors; experiment: Established MiaPaCa-2-LVT xenograft tumors, high dose gemcitabine; format: in vivo, mice; conditions: established MiaPaCa-2-LVT tumors, gemcitabine 2×150 mg/kg per week, independent from IMAB362
Source text: 9 days after subcutaneous tumor inoculation, tumor bearing mice reorganised in homogenous treatment groups with 8 animals per group and treatment was initiated.

DANG [2] = experiment: Cell cycle analysis; format: cell-based, human; conditions: 2 days
Description: The area of each bar is divided to indicate the percentage of cells in G0/G1, S and G2 phase.
Cells were plated in six-well plates, and 5-6 hours later chemotherapeutic agents were added for either 24 h 48 h or 3 days. Cells floating in the medium were combined with the adherent cell layer, which was trypsinized. Cells were washed. Either cell cycle analysis was started directly or cell surface staining was done before as described above. Cells are resuspended in 1 ml PBS and added to 3 ml 4% PFA. After 15 min fixation of cells at room temperature cells are pelleted and washed. For RNAse treatment cells were resuspended in 200 μl RNAse (10000 U/ml) plus 0.05% Triton X-100 and incubated for 30 min at 37° C. 1 ml PBS was added and samples were centrifuged and resuspended in 200 μl PBS/PJ 50 μg/ml. At least 30 min later samples were ready to be analyzed by flow cytometry. Cell cycle phase distribution was determined using FlowJo software to analyze DNA content histograms.

Suit2-LVT cells = experiment: FACS binding to Suit2-LVT cells; design: species or system human; conditions: 200 μg/ml antibody
Description: Cells were harvested with PBS/5 mM EDTA or Trypsin/EDTA from an exponentially growing culture at 70-85% confluency. Cells were counted, centrifuged for 5 min (468 g) and the pellet was resuspended in FACS buffer (2% FCS, 0.1% sodium azide in PBS) adjusting the concentration to 2×10^6/ml. 100 μl cells were plated in round bottom 96-well plates and again centrifuged (5 min, 468 g). […] Then, 200 μl FACS buffer was added to each well and plates were centrifuged (5 min, 468 g). The supernatant was removed and washing was repeated. Secondary goat anti-human antibodies (FC specific, F(ab′)2 conjugated with APC (Dianova)) were diluted (1:100) in FACS buffer and 30 μl was added to each well. Plates were incubated for 30 min at 4° C. After incubation plates were washed again two times with 200 μl FACS buffer and the pellet was finally resuspended in 100 μl FACS buffer for measurement FACS Array Bioanalyzer (BD) according to GA_018_BD FACS Array bioanalyzer.
In addition to tissue processing, it is possible that the result represents unexpected inhibiting effects of the isotype control antibody targeting CLDN6. To investigate this option, the Suit2-LVT cells were analyzed for CLDN6 expression and IMAB027 binding in FACS.

SW1990 = experiment: IMAB362-mediated ADCC assay; format: cell-based, human; conditions: at least 2 donors
Suit2-LVT metastases = experiment: Suit2-LVT metastasis model (lung, Q-PCR and IHC); format: in vivo, mice; conditions: 200 μg IMAB362, day 42
Description: Animals were sacrificed on day 42 post graft. […] Human cells were immunohistochemically stained in tissue sections with anti-human MHC-class I antibodies. * p<0.05 (Kruskal-Wallis test). Error bars: mean±SD.
Metastasis treatments were performed with 10-12 Hsd:Athymic Nude-Foxn1^nu mice per treatment group. […] All mice were sacrificed at the same time point, as soon as the first symptoms of metastasis disease appeared (loss of weight, weakness, shortness of breath), or the first mouse died.
All their organs were macroscopically analyzed for metastasis. […] These organs were dissected into 4 equal pieces, two (lung: upper right and lower left lobe), which were stored for genomic DNA isolation. The other two pieces were formalin fixed and stored for IHC analysis (FIG. 2).
Preparation of genomic DNA and Q-PCR strategy: Genomic DNA was extracted from lung or liver tissue.
The Q-PCR strategy is based on the amplification of human DNA present in the metastases. The relative detection level of human DNA in the mouse lung sample correlates directly with the amount and/or size of the metastases.
The Q-PCR reaction was performed with primer pair #5861 5′-[…]-3′ (SEQ ID NO: 53) and #5862 5′-[…]-3′ (SEQ ID NO: 54) specifically amplifying the alpha-satellite DNA present in human chromosome 17, but not in mouse DNA. […] The curve was used to calculate (linear regression) the amount of human metastasis DNA present in mouse lung tissue. Q-PCR reactions were performed in 50 μl final volume comprised of 20 μl (200 ng) mouse lung DNA, 25 μl Sybr Green (Qiagen), 1.6 μl sense primer (10 μM) and 1.6 μl anti-sense primer and 1.8 μl H2O.
After 35 days the first mouse (isotype control group) died. Consequently, all mice were sacrificed on day 42 and lungs and livers were taken for IHC and Q-PCR analyses.
Q-PCR analysis of human DNA in the lungs of mice was repeated at least twice in triplicate. […] The surface of the positively stained cells in the lung sections was calculated using the ImageJ Program. […]

KCI-MOH = experiment: IMAB362-mediated ADCC assay; format: cell-based, human; conditions: at least 2 donors
NUGC-4 = experiment: IMAB362-induced ADCC on gastric cancer cells, also with ZA/IL-2 cultivated PBMCs; format: cell-based, human
Description: Specific killing was determined in luciferase assays.

CAPAN1 = experiment: IMAB362-mediated CDC assay (healthy human serum pool, luciferase); format: cell-based
Description: (§1) CDC was performed as follows.

BxPC3 = experiment: as above; format: cell-based
Description: as §1

Panc05.04 = experiment: as above; format: cell-based
Description: as §1

Suit2 = experiment: as above; format: cell-based
Description: as §1

DANG [3] = experiment: as above; format: cell-based
Description: as §1

YAPC = experiment: as above; format: cell-based
Description: as §1

## Nc1ccn([C@@H]2O[C@H](CO)[C@@H](O)C2(F)F)c(=O)n1 [gemcitabine, 4-amino-1-(2-deoxy-2,2-difluoro-β-D-erythro-pentofuranosyl)pyrimidin-2(1H)-one]
[1]
  tumor growth: strongly inhibited in tumor growth
DANG [2]
  cell cycle effect: cell cycle arrest of cells in S-Phase

## IMAB362: chimeric IgG1 antibody directed against CLDN18.2, developed by Ganymed Pharmaceuticals AG
Suit2-LVT cells
  binding to cells in FACS: strong binding
SW1990
  ADCC EC50: n.m.
  ADCC Max. lysis: n.m.
Suit2-LVT metastases; versus PBS
  surface of MHC-I stained cells in lung sections (IHC): significant inhibition (P<0.05)
Suit2-LVT metastases; versus PBS and isotype control
  percentage of human DNA in lungs (Q-PCR): significant decrease (P<0.05)
Suit2-LVT metastases; versus isotype control antibody
  surface of MHC-I stained cells in lung sections (IHC): not significant
KCI-MOH
  ADCC EC50: n.m.
NUGC-4; PBMCs cultivated 14 days with ZA/IL-2
  ADCC activity with ZA/IL-2 cultivated PBMCs: Strong IMAB362-dependent ADCC activity
NUGC-4; up to 200 μg/ml, 24 hours, human PBMC E:T 40:1
  maximum lysis rates (ADCC): 80-100%
CAPAN1
  CDC EC50: n.m.
  CDC Max. lysis: n.m.
CAPAN1; healthy human serum pool
  complement-dependent lysis: not lysed
BxPC3
  complement-dependent lysis: not lysed
Panc05.04
  CDC EC50: n.m.
  CDC Max. lysis: n.m.
Panc05.04; healthy human serum pool
  complement-dependent lysis: not lysed
Suit2
  CDC EC50: n.m.
  CDC Max. lysis: n.m.
Suit2; healthy human serum pool
  complement-dependent lysis: not lysed
DANG [3]
  CDC EC50: n.m.
  CDC Max. lysis: n.m.
DANG [3]; healthy human serum pool
  complement-dependent lysis: not lysed
YAPC; YAPC, healthy human serum pool
  complement-dependent lysis: not lysed
YAPC; YPAC
  CDC EC50: n.m.
  CDC Max. lysis: n.m.
